Data on 90 molecules can be found in a melting point compilation (Tetko et al.; mined from patent text by program, amines drawn as free bases though some values may be those of a salt).

As a reminder, the melting point is the temperature of the solid-liquid transition.

Molecules are shown by their SMILES. Bounds are passed on as bounds.

On to `CCCCc1nn(-c2ccc(C(F)(F)F)cn2)cc1CCCOc1cc(CC(=O)O)ccc1OCC`, for which the melting point lay within 105 to 106 °C.
As to `COc1nc2cc(Cl)c(Cl)c(C(=O)O)c2nc1OC`, the melting point fell in the range of 230 to 232 °C.
The same measure for `CCCOc1nc2ccc(I)cc2c(=O)n1CCC`: 49 to 53 °C; for `CCOC(=O)c1ccc(OCc2nc(-c3ccco3)oc2C)c(OC)c1`: 133 to 134 °C; for `COC(=O)Cc1cc(OC)c(OC)cc1[N+](=O)[O-]`: 110 to 111 °C.
Under `O=C1c2ccccc2C(=O)N1[C@@H]1C[C@H](O)[C@@H](O)[C@H]1O` (racemic) stands 175 to 176 °C; under `CC1(C)CCCc2cc(CC#Cc3ccc(C(=O)O)c(O)c3)ccc21`, 152 to 153 °C; under `c1ccc(CCCNc2ccc(-c3cc(-c4ccc(NCCCc5ccccc5)cc4)cc(-c4ccc(NCCCc5ccccc5)cc4)c3)cc2)cc1`, 105 °C.
The same measure for `O=C(Nc1ccc(-n2nc(C(F)(F)F)cc2C(F)(F)F)cc1)C1CC=CCC1` (stereo not given): 177 to 178 °C.
As to `CC(C)(C)C(=O)C(C(O)C(Cl)(Cl)Cl)n1cncn1` (stereo not given), the melting point fell in the range of 220 to 222 °C.
The same measure for `CC(N1CCC(Cc2ccccc2)CC1)C(O)(NC(=O)c1ccccc1)c1ccc(N)cc1` (stereo not given): 126 to 129 °C; for `O=[N+]([O-])c1ccc2c(c1)CN(Cc1ccccc1)C2`: 80.5 to 81 °C; for `CCn1c2c(c3ccccc31)Cc1c(CO)c(CO)c(C)n1C2`: 216 to 217 °C.
The same measure for `Cc1c(N2C(=O)C[C@H](O)[C@@H]2C)ccc(C#N)c1F`: 114 to 115 °C; for `Cc1ccc(-c2ccc(OC3SCC(O)C(O)C3O)cn2)o1` (stereo not given): 168 °C.
As to `CCCCCCCCc1ccc(OCC(=O)Cn2c(C(=O)O)cc3ccccc32)cc1`, the melting point stood at 173 °C.
`CN(C)c1ccc2c(c1)C(=O)N(c1ccc(CCCC(=O)OC(C)(C)C)cc1)C2`: the melting point was 115 to 116 °C.
Take `Cc1cc(C=O)cc(Oc2[nH]c(=O)[nH]c(=O)c2C(C)C)c1`: the melting point lay in the range of 241 to 242 °C.
The same measure for `CNC(=O)N/N=C1/C(=O)N(CCN(C(C)C)C(C)C)c2ccc(C)cc21`: 158 °C.
Under `CCCNC(=O)Cc1c(-c2ccc(C)s2)nc2sc3ccccc3n12` stands 204 to 206 °C.
Under `Brc1cccc(-c2cn([C@H]3CN4CCC3CC4)nn2)c1` stands 188 °C; under `CC1=NCN(c2cc(Br)cs2)O1`, 66 to 67 °C; under `CCSN(C)C(=O)Nc1ccc(Cl)c(Cl)c1`, 71 °C.
In the case of `CCCS(=O)(=O)N(COC)C(=O)c1nc(OC)cc(OC)n1`, the melting point was 59 to 62 °C.
As to `CC(C)n1c2c(c3cccc(F)c31)C(=O)NCC2`, the melting point was in the range of 183 to 184 °C.
Under `CN(C)c1cc(F)c(S(=O)(=O)N(C)C)cc1-n1c(=O)cc(C(F)(F)F)n(C)c1=O` stands 185 to 194 °C; under `N#Cc1nn(-c2c(Cl)cc(C(F)(F)F)cc2Cl)c(-n2ccnc2)c1S(=O)(=O)C(F)(F)F`, 214 to 215 °C; under `CCc1nn(CCOP(=O)(O)O)c(CC)c1Oc1cc(C#N)cc(C#N)c1`, 198 to 199 °C.
The same measure for `O=c1oc(-c2cc(C(F)(F)F)cc(C(F)(F)F)c2)cc(O)c1Cc1ccccc1`: 80 to 82 °C.
The same measure for `CCOCCOC(=O)C1=C(C)NC(C=O)=C(C(=O)OCC)C1c1cccc([N+](=O)[O-])c1` (stereo not given): 100 to 101 °C; for `O=COCc1ccc2c(c1)C(C(Cl)(Cl)Cl)OC(C(Cl)(Cl)Cl)O2` (stereo not given): 75 to 77 °C; for `NOP(=O)(c1ccccc1)c1ccccc1`: 104 °C.
Regarding `O=C(NCc1nc(O)cc(O)n1)c1cccs1`, the melting point was 270 to 275 °C.
The same measure for `COC(=O)/C(C)=C1\CN2C(=O)CC2O1` (stereo not given): 90 to 91 °C; for `CC12CCC3c4ccc(C(=O)O)cc4CCC3C1CCC2C(=O)c1ccc2c(c1)OCO2` (stereo not given): 235 to 237 °C; for `N=C1c2nc[nH]c2N(Cc2ccc(Cl)cc2)C2=NCCN12`: 296 to 299 °C.
In turn, `CC(=O)Oc1c(N2CCCC2)c(=O)n(-c2ccccc2)c2ncccc12` returned a melting point of 197 to 200 °C.
Under `CCC(=O)N1CCC(=O)c2cc(Cl)c(Cl)cc21` stands 135 to 137 °C; under `CC(C)(Sc1cccc(OCc2ccc(-c3ccc([N+](=O)[O-])cc3)o2)c1)C(=O)O`, 137 to 138 °C; under `CC(=O)SCC(CCCc1ccccc1)C(=O)Nc1cccc(C(=O)O)c1` (stereo not given), 142 to 145 °C.
The same measure for `Fc1ccc(-c2cc3ncnc(Nc4ccc5[nH]ccc5c4)c3s2)cc1Cl`: 175 to 183 °C.
The same measure for `Cc1ccc(N2CCOCC2)c(N=C=S)c1`: 91 to 92 °C; for `Cc1cc2ccccc2cc1C1CC(=O)C=C(O)C1` (stereo not given): 210 °C.
`CCOC(=O)C1=C(N)NC(c2ccccc2)=C(C(=O)O)C1c1ccccc1` (stereo not given) gave a melting point of 183 °C.
The same measure for `CCNC(=O)c1cc([Si](C)(C)C)sc1[Si](C)(C)C`: 106 to 111 °C; for `Cc1[nH]c2ncnc(Nc3cccc(Cl)c3)c2c1C`: 239 to 240 °C.
Under `Cc1cc(-c2cc(C(F)(F)F)n3ncc(C(=O)O)c3n2)ccc1Cl` stands 243 °C.
The same measure for `O=C1NC(=O)C(Cc2ccc(NC(=O)c3cc(=O)c4cc(Br)ccc4o3)cc2)S1` (stereo not given): 281 to 285 °C; for `O=c1nc(-c2ccc(Br)cc2)c2c(=O)nc(-c3ccc(Br)cc3)c1=2`: over 400 °C; for `CCc1c(-c2ccc(OCc3ccccc3)cc2)c2cc(C(C)=O)c3ccc(OCc4ccccc4)c1n32`: 147 to 149 °C.
In turn, `Cc1cc(-c2cc(C(F)F)nn2-c2ccc(S(C)(=O)=O)c(F)c2)ccc1-c1nccs1` had a melting point of 123 °C.
Under `CCc1nnc2c(Cl)nc3ccccc3n12` stands 158 to 160 °C; under `Cn1c(C(F)(F)F)cc(=O)n(-c2ccc3snc(C(Cl)Cl)c3c2)c1=O`, 148 to 149 °C; under `CC(=O)NC(=Cc1cccnc1)C(=O)O`, 191 to 192 °C.
Under `COc1ccc(C(=O)Nc2c(Cl)cc(CO)cc2Cl)cc1OC1CCCC1` stands 174 to 176 °C; under `C=CCc1ccccc1OCC(O)CNC1CCc2ccccc2C1` (stereo not given), 70 to 72 °C; under `COc1ccc(CCN2CC(COc3cccc4c(=O)[nH]ccc34)OC2=O)cc1OC` (stereo not given), 173 to 175 °C.
In turn, `CCN(CC)c1ccc(N(CC)CC)c(N2CCNCC2)n1` had a melting point of 120 °C.
The same measure for `CCOCC(=O)Nc1c(NCCNC(=O)OC(C)(C)C)c(C)c(C)n2nnnc12`: 138 to 142 °C; for `OCCCNc1cc(Nc2ccc(N3CCOCC3)cc2)ncn1`: 198 to 199 °C.
Under `O=C(O)c1cccc(-c2ccccc2F)c1` stands 147 to 148 °C.
Under `CN1CCC(=C2c3ccccc3[C@@H](O)[C@@H](O)c3ccccc32)CC1` stands 248 to 255 °C; under `CCOC(=O)c1cn(N)c2cc(-n3cccc3)c(F)cc2c1=O`, 276 to 279 °C; under `C=C=Cn1[nH]c2ccccc2c1=O`, 126 to 130 °C.
For `CC(C)c1ccc(C2COc3cc(O)c(O)cc3C2)cc1` (stereo not given), the melting point lay within 129 to 131 °C.
On to `O=C(Nc1ccc([N+](=O)[O-])cc1)N1CCN(c2ncnc3ccccc23)CC1`, for which the melting point lay in the range of 155 to 158 °C.
Under `Cc1cc(N)ccc1Oc1ccc(Oc2ccc(N)cc2C)cc1` stands 195 to 196 °C; under `Cc1nc(C(N)=O)n(-c2ccc(Cl)c(Cl)c2)c1Cl`, 144 to 145 °C; under `CC(C)OC(=O)C=Cc1cc(N2C(=O)CC(C(F)(F)F)N(C)C2=O)ccc1Cl` (stereo not given), 200 to 202 °C.
Under `CC(C)c1ccc2nc[nH]c(=O)c2c1` stands 147 °C; under `C=CCOc1ccc2c(ccc(=O)n2CC=C(C)C)c1`, 80 to 82 °C; under `CCC(CC)(CC(=O)Nc1ccc2ccc(OCc3ccc4cccc(F)c4n3)cc2c1)C(=O)O`, 141 to 142 °C.
Under `Cc1cc(-c2ccc(Cl)c(Cl)c2)nc(-c2ccnc(-c3ccc(S(N)(=O)=O)s3)c2)n1` stands 267 °C; under `Cc1ccc(C(C(=O)C(C)C)c2ccc(C)cc2)cc1`, 48 to 51 °C.
Molecule `CC(C)n1nc(-c2sc(NC(=O)c3cccc(Cl)c3)nc2-c2ccccc2)ccc1=O` gave a melting point of 173 to 174 °C.
In the case of `CCC(CC)C(NS(=O)(=O)c1ccc(Cl)c(Cl)c1)c1ccnn1-c1ccccc1` (stereo not given), the melting point was in the range of 56 to 66 °C.
Under `CCC/C(=C\C=C\C(=O)Oc1ccc([N+](=O)[O-])cc1)c1ccc(OC)cc1` stands 90 to 92 °C; under `Cc1nc2c3c(c(C(N)=O)cc2n1C)CCC1(Cc2ccccc2C1)N3`, 272 to 273 °C; under `CONS(=O)(=O)c1ccc(Cl)cc1`, 81 to 82.5 °C.
Under `COC1=CC(=O)C=CC1=O` stands 141 to 143 °C.
Under `CC(C)N1Cc2cc(N)ccc2N(CCCl)S1(=O)=O` stands 154 to 156 °C; under `Cc1c(-c2ccccc2)sc2c(Cl)c(Cl)c(OCC(=O)O)cc12`, 232 to 233 °C.
As for `COc1ccc2[nH]c(-c3cccc(F)c3)cc(=O)c2c1OP(=O)(O)O`, the melting point was 179 to 181 °C.
The same measure for `C/C(=C\CC1OC(=O)NC1=O)c1cccc(OCCc2nc(-c3ccccc3)oc2C)c1` (stereo not given): 100 to 101 °C; for `COC(=O)COc1cc2c(c(Cl)c1Cl)C(=O)C(CCOC(C)=O)C2` (stereo not given): 111 to 113 °C.
`CC(C)/[N+]([O-])=C/c1ccccc1O` came in with a melting point of 36 to 39 °C.
Consider `O=C(O[C@@H]1CC[C@@H](c2cccc(F)c2F)Cc2ccc(Cl)nc21)N1CCC(n2c(=O)[nH]c3ncccc32)CC1`, for which the melting point came to 248 °C.
The same measure for `Cc1c(CCCl)c(=O)oc2cc(O)cc(O)c12`: 218 to 220 °C; for `CC(=O)OCC1OC(n2c(Br)c(C#N)c3cc(Cl)c(Cl)cc32)C(O)C1O` (stereo not given): 103 to 105 °C.
The same measure for `CC(C)(C)c1ccc(CCC(O)CC2CCCCC2)cc1NC(=O)NCC1c2ccccc2Oc2ccccc21` (stereo not given): 156 to 157 °C.
